Measurements: patent US20240300902A1, “NOVEL TRANSGLUTAMINASE 2 INHIBITOR AND USE THEREOF” (MD BIOLAB CO., LTD., priority 2021, published 2024)

What was measured:
renal cancer cell lines = experiment: Cell viability in various renal cancer cell lines (water soluble tetrazolium salt); type: cell-based; conditions: various concentrations, 48 hours
Description: Cells (20,000 cells/well, 100 μl) were incubated in a 96-well microplate. After 24 hours of the incubation, LDD3959 […] were added to each well in various concentrations by using a serum-free cell culture medium, and the cells were cultured at 37° C. in the presence of 5% CO2 for 2 hours. Next, the existing culture medium was replaced with a culture medium containing 10% FBS, and then incubation was carried out again for 48 hours. The existing culture medium was removed, and a new culture medium containing a water soluble tetrazolium salt was added. After that, the plate was incubated at 37° C. in the presence of 5% CO2 for a duration in the range of 1 hour to 3 hours, and then absorbance was measured at 450 nm.

[1] = system: CAKI-1 renal cancer cells; experiment: Antitumor effect in in vivo renal cancerous tumors, CAKI-1 xenograft, intraperitoneal administration; design: species or system mice
Description: To examine the antitumor effect of LDD3959, CanN.Cg-Foxn1nu/CrljOri mice were used as experimental animals. The mice were xenografted with ACHN renal cancer cells or CAKI-1 renal cancer cells to induce tumors. The ACHN renal cancer cell-transplanted group was orally administered with LDD3959, and the CAKI-1-transplanted group was intraperitoneally administered with LDD3959. In this test, the oral administration was performed daily and the intraperitoneal administration was performed twice a week.

[2] = Toxicity by 3-week DRF oral administration; type: in vivo, ICR mice; conditions: once a day for 3 weeks, 500 to 2000 mg/kg
Description: LDD3959 was administered once a day for 3 weeks at each concentration (in the range of 500 to 2000 mg/kg), adverse events during the course of administration were checked, and the subjects were sacrificed the next day after the end of administration to perform weight measurement, hematological analysis, and biochemical analysis for each organ. In addition, the same experiment was performed on five ICR female mice and five ICR male mice to identify gender-dependent differences.

[3] = system: MDA-MB231 breast cancer cells; experiment: Antitumor effects in in vivo breast cancerous tumors, MDA-MB231 xenograft; design: species or system mice
Description: To examine the antitumor effect of LDD3959, CanN.Cg-Foxn1nu/CrljOri mice were used as experimental animals. The mice were xenografted with MDA-MB231 breast cancer cells to induce tumors. The MDA-MB231 breast cancer cell-transplanted group was divided into two groups: an oral administration group and an intraperitoneal administration group. In this test, the oral administration was performed daily and the intraperitoneal administration was performed twice a week.

p53 = experiment: P53 rescue test using western blotting; type: cell-based; conditions: low to high concentration, cancer cell lines
Description: Whole cell lysates were prepared using a radioimmunoprecipitation assay (RIPA) buffer (150 mM sodium chloride, 1.0% (w/v) IGEPAL® CA-630 (NP-40), 0.5% (w/v) sodium deoxycholate, 0.1% (w/v) sodium dodecyl sulfate (SDS), a protease inhibitor cocktail, and 50 mM Tris-HCl (pH 8.0) containing a phosphatase inhibitor cocktail. Protein assays were performed through Bradford protein assay (Thermo Scientific, Waltham, MA, USA) to normalize protein expression. The proteins were resolved by SDS-PAGE and transferred to polyvinylidene difluoride (PVDF) membranes (Merck Millipore, Burlington, MA, USA). The membranes were blocked with 5% (w/v) BSA for 1 hour at room temperature and incubated overnight at 4° C. with labeled antibodies. Membranes were washed in TBS-T for 1 hour at room temperature and incubated together with a horseradish peroxidase (HRP)-bound secondary antibody for 1 hour at room temperature. Finally, the membranes were washed in TBS-T for 1 hour at room temperature and developed with enhanced chemiluminescence.

Compound: O=C1C(Cl)=C(Cl)C(=O)c2[nH]c(-c3ccc(Br)c(F)c3)nc21 [LDD3959, 2-(4-bromo-3-fluorophenyl)-5,6-dichloro-1H-benzo[d]imidazole-4,7-dione]
- cell viability in renal cancer cells (renal cancer cell lines): cancer cells in a variety of renal cancer cells were killed
- tumor growth inhibitory effect ([1]; CAKI-1 xenograft, intraperitoneal administration twice a week): concentration-dependent tumor growth inhibitory effects
- hematological examination ([1]; intraperitoneal administration group): no abnormal findings
- adverse events [2]: no specific adverse events occurred
- hematological and biochemical tests [2]: no probable adverse events
- deaths ([2]; female and male ICR mice): no deaths of the subjects occurred
- antitumor effect ([3]; intraperitoneal administration twice a week): concentration-dependent antitumor effects
- antitumor effect ([3]; oral administration daily): concentration-dependent antitumor effects
- p53 rescue effect (Western blot band of p53) (p53): dose-dependent p53 rescue effects
